Key:
[1] = refractive index (other wavelength) (dimensionless); details: 95.99 kPa, Liquid, Wavelength=404.7 nm, Standard Abbe refractometry
[2] = Liquid; for mass density: 95.99 kPa, Vibrating tube method; for vapor or sublimation pressure: Ebulliometric method (Recirculating still)
[3] = refractive index (other wavelength) (dimensionless); xn = mol fraction of the nth substance listed; details: 95.99 kPa, Liquid, Standard Abbe refractometry, x1 = 1
[4] = xn = mol fraction of the nth substance listed; details: 293.15 K; 95.99 kPa; Liquid; Vibrating tube method; x1 = 1

OCCOCCOCCO [triethylene glycol]
Details | mass density, [2] [kg/m3] | refractive index, [1] | vapor or sublimation pressure, [2] [kPa]
293.15 K | 1123.12 | 1.45619 [middle of 9 runs] | –
298.15 K | 1119.01 | 1.45447 [middle of 9 runs] | –
303.15 K | 1114.79 | 1.45273 [middle of 9 runs] | –
308.15 K | 1110.81 | 1.45106 [middle of 9 runs] | –
313.15 K | 1106.7 | 1.44927 [middle of 9 runs] | –
535.65 K | – | – | 53.33
543.87 K | – | – | 66.66
551.33 K | – | – | 79.99
559.01 K | – | – | 95.99

O [water] + OCCOCCOCCO
refractive index, [3]
Details | Wavelength=404.7 nm | Wavelength=435.8 nm | Wavelength=486.1 nm | Wavelength=546.1 nm | Wavelength=587.6 nm | Wavelength=589.3 nm | Wavelength=632.8 nm | Wavelength=644 nm | Wavelength=706.5 nm
293.15 K | 1.34287 | 1.34033 | 1.33728 | – | 1.33325 | 1.332 | 1.33194 | 1.33164 | 1.33018
298.15 K | 1.34223 | 1.33969 | 1.33606 | 1.33405 | 1.33262 | 1.33257 | 1.33132 | 1.33103 | 1.32956
303.15 K | 1.3416 | 1.33908 | 1.33606 | 1.33344 | 1.33203 | 1.33198 | 1.33074 | 1.33045 | 1.32898
308.15 K | 1.34092 | 1.33843 | 1.33538 | 1.33278 | 1.33136 | 1.33131 | 1.33007 | 1.32979 | 1.32834
313.15 K | 1.3402 | 1.3377 | 1.33466 | 1.33207 | 1.33066 | 1.33061 | 1.32937 | 1.32908 | 1.32764

Details | mass density [kg/m3]
[4] | 998.27

O [water]
Details | refractive index, 293.15 K | refractive index, 298.15 K | refractive index, 303.15 K | refractive index, 308.15 K | refractive index, 313.15 K | vapor or sublimation pressure, 356.16 K [kPa] | vapor or sublimation pressure, 361.89 K [kPa] | vapor or sublimation pressure, 366.73 K [kPa] | vapor or sublimation pressure, 371.71 K [kPa]
[1] | 1.33325 [middle of 9 runs] | 1.33262 [middle of 9 runs] | 1.33203 [middle of 9 runs] | 1.33136 [middle of 9 runs] | 1.33066 [middle of 9 runs] | – | – | – | –
[2] | – | – | – | – | – | 53.33 | 66.66 | 79.99 | 95.99

— the NIST ThermoML archive (doi:10.1016/j.fluid.2015.07.030)
